{"source": "paper PMC8706149", "about": "(International Journal of Molecular Sciences, 2021)", "key": {"[1]": {"test_system": "Escherichia coli ATCC 25922", "assay_type": "cell-based", "conditions": "positive control antibiotic; Nutrient Broth 0.5x, overnight 37°C", "protocol": "(§1) All the labeled peptide after purification were lyophilized and dissolved in water. Purity was veri-fi e d by RP-HPLC on C18 column . Pepti de i dentity was assessed by mass spectrometry anal yses (Supplementary Methods, section S4; Table S1).\n(§2) S6. Antimicrobial activity assay\n(§3) MIC (Minimum Inhibitory Concentration) analyses were performed by broth microdilution method for antimicrobial peptides previously described wi th mi nor modi ficati ons. In detai l s, assays were carried out in Nutrient Broth 0.5x (Difco, Detroit, MI, US A ) usi ng st e r i le 96-well polypropylene mi-croti ter pl ates (cat. 3879, C ostar C orp., C ambri dge, MA , US A ). Bacterial strains were grown in Luria-Bertani (LB) medium overnight at 37°C and then diluted in Nutrient Broth at a final concentration of ~5x10^5 CFU/mL per well. Twofold serial dilutions of peptides were carried out in the test wells […]\n(§4) Plates were incubated overnight at 37°C. MIC value was taken as the lowest concentration at which growth was inhibited. Three independent experiments we r e performed for each MIC value. […] MIC values were measured on Gram-negative ( E scherichia coli ATCC 25922) and Gram-po si t i ve st r ains (Sta phyl o co ccus a ure us ATCC 6538P and Bacillus globigii TNO BMO13) . […]"}, "[2]": {"assay": "Photostability under constant excitation", "assay_type": "physicochemical", "conditions": "60 min constant excitation at maximum absorption (Figure S3)", "from_the_text": "As comparative control, we used the very photostable fluorophore PyMPO [33] by treating PyMPO-(C)GKY20 in the same conditions."}, "[3]": {"conditions": "cited from earlier work; for pKa of the phenolic group of luciferin: ground state", "from_the_text": "Excited states are indicated by an asterisk. (C) Condensation reaction between 6-substituted 2-cyanobenzothiazoles and cysteine (free or as N-terminal residue of a peptide). R1 and R2 can be a wide variety of alkyl and acyl groups."}, "[4]": {"test_system": "Bacillus globigii TNO BMO13", "assay": "MIC, broth microdilution", "assay_type": "cell-based", "conditions": "Bacillus subtilis, TNOBMO13, read-out: MIC (µg/mL) Bacillus globigii TNO BMO13", "protocol": "as §1, §2, §3, §4"}}, "note": "Read-outs that look alike come from different tables or passages of the source. Marks after values point to notes of the source that are not given here. Bridge positions count the residues as written; N and C are the ends. Square brackets hold non-standard residues; d marks the D form. Peptide text beside a SMILES is read from it. * marks the point of attachment. X1 = CC[C@H](C)CCCCC(=O)*; Dab = NCC[C@H](N)C(=O)O", "data": [{"compound": "CC[C@H](C)CCCCC(=O)N[C@@H](CCN)C(=O)N[C@H](C(=O)N[C@@H](CCN)C(=O)N[C@H]1CCNC(=O)[C@H]([C@@H](C)O)NC(=O)[C@H](CCN)NC(=O)[C@H](CCN)NC(=O)[C@H](CC(C)C)NC(=O)[C@@H](Cc2ccccc2)NC(=O)[C@H](CCN)NC1=O)[C@@H](C)O", "note": "[Polymyxin B, polymyxin B] (X1-[Dab]T[Dab][Dab][Dab][dF]L[Dab][Dab]T; lactam 4-C (inferred); N-terminus assumed)", "values": [{"measurement": "MIC (µg/mL) Escherichia coli 25922 ATCC", "setting": "[1]", "result": 0.5, "unit": "µg/mL"}]}, {"compound": "1-[2-(maleimido)ethyl]-4-[5-(4-methoxyphenyl)-2-oxazolyl]pyridinium-labeled GKY20 [PyMPO-(C)GKY20]", "values": [{"measurement": "loss of initial fluorescence", "setting": "[2]", "result": 43, "unit": "%"}]}, {"compound": "O=C(O)[C@H]1CSC(c2nc3ccc(O)cc3s2)=N1", "note": "[Free Luc, luciferin]", "values": [{"measurement": "pKa of the phenolic group of luciferin", "setting": "[3]", "result": "8.70 ^b"}, {"measurement": "pKa of the phenolic group of luciferin", "setting": "[3]; listed as LUC-OH", "result": 8.7}, {"measurement": "pKa of the phenolic group of luciferin", "setting": "[3]; listed as Luc", "result": "≈ 8.7"}, {"measurement": "pKa of light-induced dissociation (excited state) of luciferin", "setting": "[3]; photoacid, excited state", "result": "< 1"}]}, {"compound": "CN[C@H](CC(C)C)C(=O)N[C@H]1C(=O)N[C@@H](CC(N)=O)C(=O)N[C@H]2C(=O)N[C@H]3C(=O)N[C@H](C(=O)N[C@H](C(=O)O)c4cc(O)cc(O)c4-c4cc3ccc4O)[C@H](O)c3ccc(c(Cl)c3)Oc3cc2cc(c3O[C@@H]2O[C@H](CO)[C@@H](O)[C@H](O)[C@H]2O[C@H]2C[C@](C)(N)[C@H](O)[C@H](C)O2)Oc2ccc(cc2Cl)[C@H]1O", "note": "[Vancomycin, vancomycin]", "values": [{"measurement": "MIC", "setting": "[4]", "result": 2, "unit": "µg/mL"}]}]}
